Measured values: patent US20230203098A1, “HUMAN TRANSFERRIN RECEPTOR BINDING PEPTIDE” (priority 2020, published 2023)
Like-named read-outs stand apart in the source and are kept apart here. One block for each molecule: values may come before it. Where a SMILES comes first, the peptide text is derived from it. Bridges are numbered along the chain shown (N, C = ends). [ ]: non-standard residue; d: D form. The star is where a group is joined. X2 = O=C(O)c1cc(C(=O)*)ccc1-c1c2ccc(=O)cc-2oc2cc(O)ccc12; PEG12 = NCCOCCOCCOCCOCCOCCOCCOCCOCCOCCOCCOCCOCCC(=O)O; NMePhe(3-Cl) = CN[C@@H](Cc1cccc(Cl)c1)C(=O)O; NMeW = CN[C@@H](Cc1c[nH]c2ccccc12)C(=O)O; Phe(4-F) = N[C@@H](Cc1ccc(F)cc1)C(=O)O; NMeY = CN[C@@H](Cc1ccc(O)cc1)C(=O)O; NMeF = CN[C@@H](Cc1ccccc1)C(=O)O

Target: transferrin receptor (hTfR) (Homo sapiens, UniProt P02786)
Test: Intermolecular interaction evaluation test between transferrin receptor (hTfR) and peptide by surface plasmon resonance (SPR)
Assay type: binding
Outline: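 Receptor was Ni-captured and EDC/NHS-fixed on an NTA chip; running buffer HEPES pH 8.0 with NaCl, Tween 20, BSA and 1.0% DMSO.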

[1] = binding to hTfR by SPR, Table 2 peptides, read-out: KD value (SPR) class

Chain of transferrin receptor (hTfR) (P02786 whole entry): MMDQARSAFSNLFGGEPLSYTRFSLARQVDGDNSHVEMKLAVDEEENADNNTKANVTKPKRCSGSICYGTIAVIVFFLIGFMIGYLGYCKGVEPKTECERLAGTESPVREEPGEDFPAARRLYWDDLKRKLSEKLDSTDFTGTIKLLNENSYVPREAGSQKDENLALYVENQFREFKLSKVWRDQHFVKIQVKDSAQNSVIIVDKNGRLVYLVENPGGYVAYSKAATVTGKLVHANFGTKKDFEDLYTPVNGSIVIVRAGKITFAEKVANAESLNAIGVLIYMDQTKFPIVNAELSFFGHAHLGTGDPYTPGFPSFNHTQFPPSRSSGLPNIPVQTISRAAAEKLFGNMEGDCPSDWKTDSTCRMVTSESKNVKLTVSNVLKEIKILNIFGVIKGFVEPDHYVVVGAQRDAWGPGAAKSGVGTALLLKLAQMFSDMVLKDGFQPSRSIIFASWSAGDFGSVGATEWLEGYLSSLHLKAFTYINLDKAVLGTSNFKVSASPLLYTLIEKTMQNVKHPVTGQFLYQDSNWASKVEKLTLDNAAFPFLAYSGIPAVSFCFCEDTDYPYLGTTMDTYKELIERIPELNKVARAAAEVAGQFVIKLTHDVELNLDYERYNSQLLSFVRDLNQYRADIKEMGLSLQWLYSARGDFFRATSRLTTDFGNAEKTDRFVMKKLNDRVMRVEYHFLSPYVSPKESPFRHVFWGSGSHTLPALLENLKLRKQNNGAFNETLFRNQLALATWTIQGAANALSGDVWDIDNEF

Compound: CC[C@H](C)[C@@H]1NC(=O)[C@H](Cc2ccc(O)cc2)NC(=O)[C@H](Cc2ccc(O)cc2)NC(=O)[C@H](CC(N)=O)NC(=O)[C@H](Cc2c[nH]c3ccccc23)NC(=O)[C@H](C(C)C)NC(=O)[C@H](Cc2ccccc2)NC(=O)[C@H](CCC(=O)O)NC(=O)[C@H](C)NC(=O)CSC[C@@H](C(N)=O)NC(=O)[C@H](Cc2ccc(O)cc2)N(C)C(=O)[C@H](Cc2ccc(O)cc2)NC(=O)[C@H](CCCNC(=N)N)NC(=O)[C@H](CCCNC(=N)N)NC(=O)[C@H]([C@@H](C)CC)NC1=O [compound 219]
Kd (SPR, peptides, linker-added peptides and FITC conjugates, Patent ID 203-230, read-out: KD): 1 to 100 nM

Compound: CC[C@H](C)[C@@H]1NC(=O)[C@H](Cc2ccc(O)cc2)NC(=O)[C@H](Cc2ccc(O)cc2)NC(=O)[C@H](CC(N)=O)NC(=O)[C@H](Cc2c[nH]c3ccccc23)NC(=O)[C@H](C(C)C)NC(=O)[C@H](Cc2ccccc2)NC(=O)[C@H](C(C)C)NC(=O)[C@H](C)NC(=O)[C@H](CO)NC(=O)[C@H](C)NC(=O)CSC[C@@H](C(=O)NCCOCCOCCOCCOCCOCCOCCOCCOCCOCCOCCOCCOCCC(=O)N[C@@H](CCCCNC(=O)c2ccc(-c3c4ccc(=O)cc-4oc4cc(O)ccc34)c(C(=O)O)c2)C(N)=O)NC(=O)[C@H](C)NC(=O)[C@H](Cc2c[nH]c3ccccc23)NC(=O)[C@H](CCCNC(=N)N)NC(=O)[C@H](CC(N)=O)NC(=O)[C@H]([C@@H](C)CC)NC1=O [compound 155] ({CH2CO}-ASAVFVWNYYIINRWAC[PEG12]K(X2)-NH2; thioether N-17)
Kd (SPR, linker and payload (FITC, VivoTag) conjugates, read-out: KD): 1 to 100 nM

Compound: CC[C@H](C)[C@@H]1NC(=O)[C@H](Cc2ccc(O)cc2)NC(=O)[C@H](Cc2ccc(O)cc2)NC(=O)[C@H](CC(N)=O)NC(=O)[C@H](Cc2ccc(F)cc2)NC(=O)[C@H](C(C)C)NC(=O)[C@H](Cc2ccccc2)N(C)C(=O)[C@H](C(C)C)NC(=O)[C@H](C)NC(=O)CSC[C@@H](C(=O)NCCOCCOCCOCCOCCOCCOCCOCCOCCOCCOCCOCCOCCC(N)=O)NC(=O)[C@H](Cc2ccc(O)cc2)N(C)C(=O)[C@H](Cc2ccc(O)cc2)NC(=O)[C@H](CCCNC(=N)N)NC(=O)[C@H](CCCNC(=N)N)NC(=O)[C@H]([C@@H](C)CC)NC1=O [compound 119] ({CH2CO}-AV[NMeF]V[Phe(4-F)]NYYIIRRY[NMeY]C[PEG12]-NH2; thioether N-15)
Kd (SPR, hTfR No. 894 variants with PEG12c linker (Table 2), read-out: KD): 1 to 100 nM

Next, values leading:

Kd (SPR, hTfR, class symbols A-D, read-out: KD): 1 to 100 nM
Compound: CC[C@H](C)[C@@H]1NC(=O)[C@H](Cc2ccc(F)cc2)NC(=O)[C@H](Cc2ccc(O)cc2)NC(=O)[C@H](CC(N)=O)NC(=O)[C@H](Cc2c[nH]c3ccccc23)N(C)C(=O)[C@H](C(C)C)NC(=O)[C@H](Cc2cccc(Cl)c2)N(C)C(=O)[C@H](C(C)C)NC(=O)[C@H](C)NC(=O)CSC[C@@H](C(N)=O)NC(=O)[C@H](Cc2ccc(O)cc2)N(C)C(=O)[C@H](Cc2ccccc2)NC(=O)[C@@H](CCCNC(=N)N)NC(=O)[C@H](CCCNC(=N)N)NC(=O)[C@H]([C@@H](C)CC)NC1=O [compound 467] ({CH2CO}-AV[NMePhe(3-Cl)]V[NMeW]NY[Phe(4-F)]IIR[dR]F[NMeY]C-NH2; thioether N-15)

Kd [1]: 1 to 100 nM
Compound: CC[C@H](C)[C@@H]1NC(=O)[C@H](Cc2ccc(O)cc2)NC(=O)[C@H](Cc2ccc(O)cc2)NC(=O)[C@H](CC(N)=O)NC(=O)[C@H](Cc2c[nH]c3ccccc23)NC(=O)[C@H](C(C)C)NC(=O)[C@H](Cc2ccccc2)NC(=O)[C@H](CCCNC(=N)N)NC(=O)[C@H](C)NC(=O)CSC[C@@H](C(N)=O)NC(=O)[C@H](Cc2ccc(O)cc2)N(C)C(=O)[C@H](Cc2ccc(O)cc2)NC(=O)[C@H](CCCNC(=N)N)NC(=O)[C@H](CCCNC(=N)N)NC(=O)[C@H]([C@@H](C)CC)NC1=O [compound 237]

Kd [1]: 1 to 100 nM
Compound: CC[C@H](C)[C@@H]1NC(=O)[C@H](Cc2ccc(O)cc2)NC(=O)[C@H](Cc2ccc(O)cc2)NC(=O)[C@H](CC(N)=O)NC(=O)[C@H](Cc2c[nH]c3ccccc23)NC(=O)[C@H](C(C)C)NC(=O)[C@H](Cc2ccccc2)NC(=O)[C@H](C(C)C)NC(=O)[C@H](C)NC(=O)CSC[C@@H](C(N)=O)NC(=O)[C@H](Cc2ccc(O)cc2)N(C)C(=O)[C@H](Cc2ccc(O)cc2)NC(=O)[C@H](CCC(=O)O)NC(=O)[C@H](CCCNC(=N)N)NC(=O)[C@H]([C@@H](C)CC)NC1=O [compound 257]
